Experimental data published in the supplement of paper PMC10307832.

What was measured:
Experiment in all cases: relative viability (nuclei count vs DMSO), 5 days (fraction); higher = more cells survive
Vorinostat + OSI-027 = compound: O=C(CCCCCCC(=O)Nc1ccccc1)NO [Vorinostat] + COc1cccc2cc(-c3nc([C@H]4CC[C@H](C(=O)O)CC4)n4ncnc(N)c34)[nH]c12 [OSI-027] (partner 0.5 µM)
Method in brief: (§1)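 Lung cancer cell lines in 1536-well plates were dosed by pin tool the day after seeding, either with one drug alone or with a fixed anchor-drug dose plus five library-drug doses (not always all listed) in √10 steps. After 5 days, cells were fixed and their nuclei stained in one step (final 0.05% Triton X-100, 1% formaldehyde, 1 ug/ml Hoechst), then counted on 4× images. Relative viability is the nuclei count in treated wells divided by that in vehicle wells. Values are medians of duplicate plates.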

Vorinostat + Navitoclax = compound: O=C(CCCCCCC(=O)Nc1ccccc1)NO [Vorinostat] + CC1(C)CCC(c2ccc(Cl)cc2)=C(CN2CCN(c3ccc(C(=O)NS(=O)(=O)c4ccc(N[C@H](CCN5CCOCC5)CSc5ccccc5)c(S(=O)(=O)C(F)(F)F)c4)cc3)CC2)C1 [Navitoclax] (partner 0.5 µM)
Method in brief: as §1

Vorinostat + Alpelisib = compound: O=C(CCCCCCC(=O)Nc1ccccc1)NO [Vorinostat] + Cc1nc(NC(=O)N2CCC[C@H]2C(N)=O)sc1-c1ccnc(C(C)(C)C(F)(F)F)c1 [Alpelisib] (partner 2 µM)
Method in brief: as §1

Vorinostat + Olaparib = compound: O=C(CCCCCCC(=O)Nc1ccccc1)NO [Vorinostat] + O=C(c1cc(Cc2n[nH]c(=O)c3ccccc23)ccc1F)N1CCN(C(=O)C2CC2)CC1 [Olaparib] (partner 8 µM)
Method in brief: as §1

Vorinostat + Foretinib = compound: O=C(CCCCCCC(=O)Nc1ccccc1)NO [Vorinostat] + COc1cc2c(Oc3ccc(NC(=O)C4(C(=O)Nc5ccc(F)cc5)CC4)cc3F)ccnc2cc1OCCCN1CCOCC1 [Foretinib] (partner 0.25 µM)
Method in brief: as §1

Cell Line | relative viability (Vorinostat + OSI-027; first compound 0.253 µM) | relative viability (Vorinostat + OSI-027; first compound 0.8 µM) | relative viability (Vorinostat + OSI-027; first compound 2.53 µM) | relative viability (Vorinostat + OSI-027; first compound 8 µM) | relative viability (Vorinostat + Navitoclax; first compound 0.253 µM) | relative viability (Vorinostat + Navitoclax; first compound 0.8 µM) | relative viability (Vorinostat + Navitoclax; first compound 2.53 µM) | relative viability (Vorinostat + Navitoclax; first compound 8 µM) | relative viability (Vorinostat + Alpelisib; first compound 0.253 µM) | relative viability (Vorinostat + Alpelisib; first compound 0.8 µM) | relative viability (Vorinostat + Alpelisib; first compound 2.53 µM) | relative viability (Vorinostat + Alpelisib; first compound 8 µM) | relative viability (Vorinostat + Olaparib; first compound 0.253 µM) | relative viability (Vorinostat + Olaparib; first compound 0.8 µM) | relative viability (Vorinostat + Olaparib; first compound 2.53 µM) | relative viability (Vorinostat + Olaparib; first compound 8 µM) | relative viability (Vorinostat + Foretinib; first compound 0.253 µM) | relative viability (Vorinostat + Foretinib; first compound 0.8 µM) | relative viability (Vorinostat + Foretinib; first compound 2.53 µM) | relative viability (Vorinostat + Foretinib; first compound 8 µM)
LK-2 | 0.196 | 0.169 | 0.117 | 0.103 | 0.939 | 0.585 | 0.169 | 0.0764 | 1.07 | 0.847 | 0.234 | 0.125 | 0.705 | 0.62 | 0.309 | 0.0471 | 1.03 | 0.896 | 0.28 | 0.137
HOP-62 | 0.985 | 0.649 | 0.378 | 0.0983 | 0.969 | 0.779 | 0.215 | 0.0581 | 1.25 | 0.947 | 0.49 | 0.0804 | 0.468 | 0.35 | 0.16 | 0.0785 | 1.03 | 1.1 | 0.365 | 0.122
BEN | 0.287 | 0.24 | 0.0754 | 0.0473 | 0.0469 | 0.0584 | 0.0602 | 0.0509 | 1.07 | 0.457 | 0.154 | 0.0775 | 1.15 | 0.791 | 0.281 | 0.1 | 0.8 | 0.414 | 0.149 | 0.0734
NCI-H1755 | 0.734 | 0.681 | 0.384 | 0.185 | 1.01 | 0.98 | 0.369 | 0.215 | 1.03 | 0.92 | 0.326 | 0.137 | 0.953 | 0.86 | 0.307 | 0.205 | 0.997 | 0.971 | 0.525 | 0.202
NCI-H322M | 0.584 | 0.502 | 0.32 | 0.235 | 1.33 | 1.32 | 0.836 | 0.249 | 0.93 | 0.852 | 0.576 | 0.296 | 0.9 | 0.873 | 0.498 | 0.386 | 1.1 | 0.925 | 0.428 | 0.309
NCI-H1651 | 1 | 0.607 | 0.195 | 0.0644 | 1.12 | 0.732 | 0.0917 | 0.0643 | 1.04 | 0.713 | 0.119 | 0.0787 | 0.187 | 0.17 | 0.098 | 0.0473 | 0.879 | 0.791 | 0.228 | 0.0797
NCI-H727 | 0.682 | 0.574 | 0.477 | 0.393 | 0.433 | 0.506 | 0.241 | 0.196 | 0.536 | 0.68 | 0.303 | 0.203 | 0.682 | 0.745 | 0.525 | 0.401 | 0.855 | 0.821 | 0.378 | 0.329
NCI-H23 | 0.595 | 0.338 | 0.329 | 0.118 | 1.06 | 0.89 | 0.25 | 0.142 | 0.84 | 0.707 | 0.213 | 0.117 | 0.317 | 0.239 | 0.0822 | 0.084 | 1.05 | 0.724 | 0.336 | 0.129
